Here are results for five compounds from patent publication US8609699B2, “Oxotetrahydrofuran-2-yl-benzimidazole derivative” (MSD K.K., priority 2008, dated 2013).

Assay [1] has as its system high-fat diet loaded mice. Put plainly: Antihyperglycemic effect in high-fat diet loaded mice. Type of assay: in vivo, C57BL/6J mice. The note with it: oral 10 mg/kg in 0.5% methyl cellulose; 1 hour after administration; free-feeding mice. The procedure: Six-week-old male C57BL/6J mice were fed a high-fat diet (RESEARCH DIETS, D12492) for ≧9 weeks to produce the high-fat diet loaded mice (>160 mg/dl).
The slight tail tips of the high-fat diet loaded mice (18-21 weeks old, n=6) under the conditions of free-feeding and water intake were cut with scissors to collect their blood. The collected blood was used to determine blood glucose levels prior to the administration of a compound by a blood glucose level measuring apparatus (One Touch Ultra (Johnson. Johnson)), followed by oral administration of the compound suspended in a 0.5% methyl cellulose solution at 10 mg/kg, while a 0.5% methyl cellulose solution was orally administered to the control group. The blood glucose levels were determined using the blood glucose level measuring apparatus every 1 hour after the administration of the test drug solutions.
The values of the decreases in blood glucose (differences between the control group and the compound-treated group) at 1 hour after administration were shown in Table 7 described below.
The values of the decreases in blood glucose (differences between the control group and the compound-treated group) at 1 hour after administration of the compounds according to Example 1 and Example 7 were shown in Table 7 described below.

Assay [2] has as its target T1, recombinant human liver GK (Homo sapiens, UniProt P35557).
T1 construct: made in house; host or cells: E. coli
T1 sequence (P35557 1-466 isoform P35557-2): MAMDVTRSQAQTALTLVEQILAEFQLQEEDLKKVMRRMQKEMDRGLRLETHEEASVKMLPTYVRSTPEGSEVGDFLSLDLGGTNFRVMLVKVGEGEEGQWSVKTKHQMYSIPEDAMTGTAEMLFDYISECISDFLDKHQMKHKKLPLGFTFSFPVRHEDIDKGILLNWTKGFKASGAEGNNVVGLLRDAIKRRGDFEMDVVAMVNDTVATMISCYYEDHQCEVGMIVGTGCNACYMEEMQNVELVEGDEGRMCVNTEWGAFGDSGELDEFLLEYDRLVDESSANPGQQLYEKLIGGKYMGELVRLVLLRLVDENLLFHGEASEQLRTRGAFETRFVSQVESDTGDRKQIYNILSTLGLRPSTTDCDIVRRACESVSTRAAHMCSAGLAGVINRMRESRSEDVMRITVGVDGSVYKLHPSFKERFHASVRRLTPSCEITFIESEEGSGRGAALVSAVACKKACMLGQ
Put plainly: Glucokinase-activating effect (Thio-NADH, G6PDH-coupled assay). It is filed as biochemical. The note with it: final glucose 2.5 mM, 30° C, separated enantiomers; for Emax(%): OD level of DMSO control = 100%. An excerpt:
The excellent glucokinase-activating effect of the compounds of formula (I) may be determined by a method described in literature (for example, Diabetes, Vol. 45, pp. 1671-1677, 1996), or in accordance with it.
The glucokinase activity may be determined not by directly measuring glucose-6-phosphate but by measuring the level of Thio-NADH, which is produced when a reporter enzyme, glucose-6-phosphate dehydrogenase produces phosphogluconolactone from glucose-6-phosphate, and based on the level, the degree of glucokinase activation by the compound tested may be determined.
In this assay, used was a recombinant human liver GK, which was expressed by E. coli as a FLAG fusion protein therein and was purified by ANTIFLAG M2 AFFINITY GEL (Sigma).
Using a flat-bottomed 96-well plate, the assay was carried out at 30° C. 69 μl of an assay buffer (25 mM Hepes Buffer/pH=7.2, 2 mM MgCl2, 1 mM ATP, 0.5 mM TNAD, 1 mM dithiothreitol) was put into the plate, and 1 μl of a DMSO solution of the compound or DMSO alone as a control was added thereto. Next, 20 μl of an enzyme mixture (FLAG-GK, 20 U/ml G6PDH) cooled in ice was added to it, and 10 μl of a substrate, 25 mM glucose was added to it, and the reaction was initiated (final glucose concentration=2.5 mM).
After the start of the reaction, the increase in the absorbance at 405 nm was measured for 12 minutes at intervals of 30 seconds, and the increase for the first 5 minutes was used for assessing the compound tested. FLAG-GK was added so that the absorbance increase after 5 minutes in the presence of 1% DMSO could be from 0.04 to 0.06.
The OD level of the DMSO control was set as 100%; and the OD level of the test compound at different concentrations was determined. From the OD level at each concentration, Emax (%) and EC50 (μM) were computed and used as the index of the GK-activating potency of the compound.
The GK activating effect of the compounds of the invention was measured according to the method as above, and the results are shown in Table 5 below.

The subject of a further assay is male beagles. The assay can be described thus: Antihyperglycemic effect in fasted beagles (plasma glucose AUC). It is filed as in vivo. The note with it: compared to control group up to 4 hours after administration, fasted overnight. The procedure: From the cephalic vein of male beagles fasted overnight (9.4-14.4 kg body weight), blood was collected prior to administration, followed by oral administration of the test drug suspended in a 0.5% methyl cellulose solution (0.3 and 1 mg/kg), while a 0.5% methyl cellulose solution was orally administered to the control group. The blood was collected at 0.5, 1, 2, and 4 hours after the administration of the test drug. Plasma was separated from the obtained blood to determine a plasma glucose level using Determina-GL-E (Kyowa Medics).

`O=C1CCC(c2cc3[nH]c(-c4ccccn4)nc3cc2Oc2ccc(C(=O)N3CCC3)cc2)O1` (single isomer, unassigned) [Example 1 B, 5-{5-[4-(azetidin-1-ylcarbonyl)phenoxy]-2-pyridin-2-yl-1H-benzimidazol-6-yl}dihydrofuran-2(3H)-one]: the “Difference from control group (Δmg/dl), decrease in blood glucose” value in assay [1] is reported as −132 Δmg/dl. In addition, in assay [2] (listed as 1 B), the “Emax(%)” value worked out at 588%. For the same compound, the EC50 (commonly the concentration that produces a half-maximal response) in assay [2] was found to be 240 nM. In addition, the entries for the “Rate of decrease (%) in plasma glucose level AUC” value in the assay with male beagles (oral 0.3 mg/kg) and in the assay on male beagles (oral 1.0 mg/kg) were 16.2% and 23.4%, respectively.

Take `CN(C)C(=O)Cc1ccc(Oc2cc3nc(-c4ccccn4)[nH]c3cc2C2CCC(=O)O2)cc1` (single isomer, unassigned) [Example 7 A, N,N-dimethyl-2-(4-{[6-(5-oxotetrahydrofuran-2-yl)-2-pyridin-2-yl-1H-benzimidazol-5-yl]oxy}phenyl)acetamide]: the “Emax(%)” value in assay [2] (listed as 7 A) is 775%. The EC50 in assay [2] stood at 2470 nM.

For `CN(C)C(=O)Cc1ccc(Oc2cc3nc(-c4ccccn4)[nH]c3cc2C2CCC(=O)O2)cc1` (single isomer, unassigned) [Example 7 B, N,N-dimethyl-2-(4-{[6-(5-oxotetrahydrofuran-2-yl)-2-pyridin-2-yl-1H-benzimidazol-5-yl]oxy}phenyl)acetamide], in assay [1], the “Difference from control group (Δmg/dl), decrease in blood glucose” value is recorded as −146 Δmg/dl. Besides, the “Emax(%)” value in assay [2] (listed as 7 B) is given as 972%. The EC50 in assay [2] was 290 nM. The figures for the “Rate of decrease (%) in plasma glucose level AUC” value in the assay with male beagles (oral 0.3 mg/kg) and in the assay with male beagles (oral 1.0 mg/kg) were 12.4% and 15.6%, respectively.

Regarding `COCc1ccc(Oc2cc3nc(-c4ccccn4)[nH]c3cc2C2CCC(=O)O2)cn1` (single isomer, unassigned) [Example 11 A, 5-(5-{[6-(methoxymethyl)pyridin-3-yl]oxy}-2-pyridin-2-yl-1H-benzimidazol-6-yl)dihydrofuran-2(3H)-one], the “Emax(%)” value in assay [2] (listed as 11 A) is recorded as 412%. Also, in assay [2], the EC50 came out at 16600 nM.

Turning to `COCc1ccc(Oc2cc3nc(-c4ccccn4)[nH]c3cc2C2CCC(=O)O2)cn1` (single isomer, unassigned) [Example 11 B, 5-(5-{[6-(methoxymethyl)pyridin-3-yl]oxy}-2-pyridin-2-yl-1H-benzimidazol-6-yl)dihydrofuran-2(3H)-one], the “Emax(%)” value in assay [2] (listed as 11 B) came to 788%. Further, the EC50 in assay [2] is 270 nM.
